From US9415011B1, “Method for treatment of liver cancer and inhibition of metastasis with CXC-chemokine-receptor 4-targeted nanoparticle” (National Tsing Hua University, priority 2015, dated 2016)

How the values were obtained:
JHH-7 cells [1] = assay: In vitro cytotoxicity, MTT assay; type: cell-based, human; conditions: JHH-7, 48 hours, sorafenib 0.25 μM, AMD3100 0.2 μM
Procedure: (§1) For cytotoxicity examination of the CXCR4-targeted lipid-coated PLGA nanoparticle of the present invention, HCA-1 or JHH-7 cells were seeded in 96-well transparent plates (Costar, Ill., USA) at a density of 1000 cells/well in a medium and were incubated for 12 hours. After confluency reached 10%, the medium was replaced with RPMI-1640 media containing DOPSor, ADOPSor, free DOPA, ADOP, or DOPSor with free AMD3100 at the equivalent sorafenib concentration of 0.25 μM. […] All cells were incubated for 48 hours. After incubation for another 3 hours, MTT assay was utilized to subsequently measure the cell viability. The absorbance of the wells was measured by Multiskan (Thermo, USA) at 570 nm and background absorbance was subtracted from all data. The percentage of cell viability was calculated by normalization of all values to the control group.

HCA-1 cells [2] = assay: In vitro cytotoxicity, MTT assay; type: cell-based, murine; conditions: HCA-1, 48 hours, sorafenib 0.25 μM, AMD3100 0.2 μM
Procedure: as §1

[3] = In vivo pharmacokinetics of C6 in blood; parameters: species or system C3H mice; conditions: 2 mg/kg, mice with orthotopic HCA-1 tumor
Procedure: To examine the pharmacokinetics profile in vivo, firstly, C6-loaded lipid-coated PLGA nanoparticle without AMD3100 modification (DOP-C6) and C6-loaded AMD3100-modified lipid-coated PLGA nanoparticle (ADOP-C6) were prepared according to the method set forth above. Then, C3H mice with orthotopic HCA-1 tumor were administered with free C6, DOP-C6 and ADOP-C6 at a dosage of 2 mg/kg. 40 μl of blood was collected from the tail artery and mixed with 10 μL of EDTA (50 mM) at different periods of time. The fluorescence intensity was measured by the plate reader (Fluoroskan Ascent FL, Thermo Scientific) at an excitation wavelength of 485 nm and an emission wavelength of 538 nm C6 concentration was normalized and calculated from a standard curve obtained by spiking known amounts of free C6 or C6-loaded nanoparticles in blood obtained from uninjected mice.

orthotopic HCA-1 tumor [4] = assay: Syngeneic orthotopic murine HCC model, sorafenib and AMD3100-modified nanoparticle; type: in vivo, C3H mice; conditions: sorafenib 50 mg/kg daily for 14 days
Excerpt: 4 to 6-week-old male C3H/HeNCrNarl mice (weight: 25 g) were purchased from National Laboratory Animal Center (Taipei, Taiwan). In order to create hepatocellular carcinoma model, every mouse was orthotopically injected with HCA-1 cells (10^6 cells per mouse) in liver.
On the other hand, HCA-1 cells were intrahepatic ally implanted into C3H mice to establish a syngeneic orthotopic murine HCC model. For evaluation of mean vessel density (MVD) and hypoxic induction, mice without any treatment were defined as Negative control group, while mice treated with free sorafenib alone were defined as Positive control group. Mice treated with free sorafenib and free AMD3100 were defined as Comparative. For the experimental groups, mice treated with AMD3100-modified lipid-coated nanoparticle of the present invention were defined as Experimental group 1, while mice treated with sorafenib and AMD3100-modified lipid-coated nanoparticle of the present invention together were defined as Experimental group 2.
After HCC tumors were established, mice were treated according to the above mentioned Positive control group, Comparative group, Experimental group 1, and Experimental group 2 with sorafenib given at a dose of 50 mg/kg daily for 14 days. […] On the other hand, the change in SDF1α expression as a consequence of treatment-induced hypoxia was examined.

JHH-7 cells [5] = assay: Cell viability under sorafenib with recombinant SDF1α; type: cell-based, human; conditions: JHH-7, in the presence of sorafenib
Excerpt: (§2) To examine cell viability, cells without any treatment were defined as Negative control group, while cells treated with free sorafenib alone were defined as Positive control group. Meanwhile, cells treated with sorafenib in the presence of recombinant SDF1α were defined as Comparative group 1, while cells treated with free sorafenib and free AMD3100 were defined as Comparative group 2. Regarding the experimental groups, cells treated with sorafenib-loaded lipid-coated nanoparticle without AMD3100 modification were defined as Experimental group 1, while cells treated with sorafenib-loaded AMD3100-modified lipid-coated nanoparticle were defined as Experimental group 2.
(§3) To determine whether the SDF1α/CXCR4 axis mediates HCC resistance to sorafenib treatment, both murine HCC (HCA-1) and human HCC (JHH-7) cell lines were firstly exposed to recombinant SDF1α in the presence of sorafenib.

HCA-1 cells [6] = assay: as above; type: cell-based, murine; conditions: HCA-1, in the presence of sorafenib
Excerpt: as §2, §3

VEGF [7] = assay: VEGF expression by western blot; type: cell-based, murine; conditions: HCA-1
Excerpt: (§4) Firstly, cells treated with free control siRNA were defined as Control group, while cells treated with free anti-VEGF siRNA were defined as Comparative group. Cells treated with anti-VEGF siRNA-loaded lipid-coated nanoparticle without AMD3100 modification were defined as Experimental group 1, while cells treated with anti-VEGF siRNA-loaded AMD3100-modified lipid-coated nanoparticle were defined as Experimental group 2.

VEGF [8] = assay: VEGF expression by western blot; type: cell-based, human; conditions: JHH-7
Excerpt: as §4

orthotopic HCA-1 tumor [9] = assay: In vivo tumor uptake of fluorescence-labeled siRNA; parameters: species or system mice; conditions: intravenous injection, after 4 hours
Procedure: Next, the uptake of the fluorescence-labeled siRNA in orthotopic HCA-1 tumor models via intravenous injection was evaluated after 4 hours.

c1cc(CN2CCCNCCNCCCNCC2)ccc1CN1CCCNCCNCCCNCC1 [AMD3100]
cytotoxicity / cell viability (JHH-7 cells [1]): did not have a cytotoxic effect
cytotoxicity / cell viability (HCA-1 cells [2]): did not have a cytotoxic effect

CCN(CC)c1ccc2cc(-c3nc4ccccc4s3)c(=O)oc2c1 [free C6, coumarin 6]
C6 in blood after 1 hour [3]: cleared rapidly from the blood after 1 hour
C6 in blood after 4 hours [3]: almost cleared out after 4 hours

CNC(=O)c1cc(Oc2ccc(NC(=O)Nc3ccc(Cl)c(C(F)(F)F)c3)cc2)ccn1 [sorafenib, Sorafenib]
carbonic anhydrase IX (CAIX) expression (hypoxia) (orthotopic HCA-1 tumor [4]): increase of carbonic anhydrase IX (CAIX) expression
increase in SDF1α expression in HCA-1 tumor tissues (orthotopic HCA-1 tumor [4]): 3 fold
increase in number of F4/80+ macrophages (orthotopic HCA-1 tumor [4]): over 3 fold
lung metastasis (orthotopic HCA-1 tumor [4]): Neither the Positive control group nor the Comparative group showed a reduction in metastasis formation
mean vessel density (MVD) (orthotopic HCA-1 tumor [4]): significant reduction of MVD
tumor growth (orthotopic HCA-1 tumor [4]): moderate tumor growth inhibitory effect

SDF1α
cell viability (JHH-7 cells [5]): increased the viability
cell viability (HCA-1 cells [6]): increased the viability

free anti-VEGF siRNA: anti-VEGF siRNA with sequence 5′-AUGUGAAUGCAGACCAAAGAA-3′ (chemistry not given here)
VEGF expression (VEGF [7]): no suppression of VEGF expression
VEGF expression (VEGF [8]): no suppression of VEGF expression
uptake of fluorescence-labeled siRNA in orthotopic HCA-1 tumor (orthotopic HCA-1 tumor [9]): intracellular uptake can hardly be detected
